Earlier results on three substances are cited in US20160081975A1, “SOFT GEL COMPOSITIONS AND PRE-GEL CONCENTRATES” (VIRUN, INC., priority 2014, published 2016).

The conditions of the series: reported value.
Regarding sucrose dipalmitate, the HLB value was 7.4. As for sucrose monopalmitate, the HLB value was over 10. On to sucrose distearate, for which the HLB value was 3.
